Legend:
[1] = target: T1, Phosphatidylinositol 4,5-bisphosphate 3-kinase catalytic subunit delta isoform (Homo sapiens, UniProt O00329); assay: Inhibition of recombinant human PI3Kdelta using PIP2 as substrate after 35 to 40 mins by HTRF assay
T1 sequence (O00329 whole entry): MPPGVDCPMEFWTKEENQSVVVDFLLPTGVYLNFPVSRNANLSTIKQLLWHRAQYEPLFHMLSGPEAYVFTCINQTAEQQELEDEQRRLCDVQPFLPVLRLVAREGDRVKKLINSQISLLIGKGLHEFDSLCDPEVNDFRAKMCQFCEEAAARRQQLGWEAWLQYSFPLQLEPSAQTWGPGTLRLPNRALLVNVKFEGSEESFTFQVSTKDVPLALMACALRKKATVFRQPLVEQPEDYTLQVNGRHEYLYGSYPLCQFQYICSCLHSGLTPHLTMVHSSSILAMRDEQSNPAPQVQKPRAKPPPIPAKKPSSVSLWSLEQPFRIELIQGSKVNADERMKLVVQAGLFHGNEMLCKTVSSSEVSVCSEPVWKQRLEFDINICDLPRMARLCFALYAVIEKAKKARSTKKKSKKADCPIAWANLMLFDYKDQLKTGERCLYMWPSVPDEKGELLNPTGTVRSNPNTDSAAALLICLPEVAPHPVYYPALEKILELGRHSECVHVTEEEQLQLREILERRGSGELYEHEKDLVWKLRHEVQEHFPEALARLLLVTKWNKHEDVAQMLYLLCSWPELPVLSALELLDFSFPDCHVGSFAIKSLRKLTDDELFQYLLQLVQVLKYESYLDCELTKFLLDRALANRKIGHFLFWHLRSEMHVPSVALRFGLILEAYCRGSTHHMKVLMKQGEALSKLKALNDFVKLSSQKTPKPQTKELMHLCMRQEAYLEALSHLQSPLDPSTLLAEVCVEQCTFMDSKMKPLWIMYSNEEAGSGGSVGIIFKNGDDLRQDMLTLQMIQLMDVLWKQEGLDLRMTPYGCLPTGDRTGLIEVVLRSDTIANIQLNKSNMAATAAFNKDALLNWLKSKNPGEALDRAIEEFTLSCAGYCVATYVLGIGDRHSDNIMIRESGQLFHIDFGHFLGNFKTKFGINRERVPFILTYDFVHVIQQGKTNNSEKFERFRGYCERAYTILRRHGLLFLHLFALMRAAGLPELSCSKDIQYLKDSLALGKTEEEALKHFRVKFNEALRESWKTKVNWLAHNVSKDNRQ

[2] = Inhibition of PI3K in rat Rat-1 cells assessed as decrease in AKT 1/2 phosphorylation at ser473 residues after 1 hr by AlphaScreen assay; assay type: cell-based
[3] = Half life in BALB/c mouse at 1 mg/kg, iv or 3 mg/kg, po by LC-MS/MS analysis; assay type: ADME, organism-based; conditions: in vivo
B-cell = assay: Antiproliferative activity against anti-IgM antibody-stimulated BALB/c mouse B cells after 2 days by Alamar Blue reagent-based assay; conditions: 48 h
[4] = target: Phosphatidylinositol 4,5-bisphosphate 3-kinase catalytic subunit alpha isoform (Homo sapiens, UniProt P42336); assay: Inhibition of human PI3Kalpha using phosphatidyl inositol as substrate after 3 hrs by Kinase-Glo Plus reagent-based luminescence assay
[5] = Intrinsic clearance in CD1 mouse liver microsomes at 0.2 uM up to 45 mins in presence of NADPH by LC-MS/MS analysis; assay type: ADME, Microsome; conditions: read-out: CLH
[6] = target: Phosphatidylinositol 4,5-bisphosphate 3-kinase catalytic subunit gamma isoform (Homo sapiens, UniProt P48736); assay: Inhibition of recombinant human PI3Kgamma using PIP2 as substrate after 35 to 40 mins by HTRF assay
[7] = target: Phosphatidylinositol 4,5-bisphosphate 3-kinase catalytic subunit beta isoform (Homo sapiens, UniProt P42338); assay: Inhibition of recombinant human PI3Kbeta using PIP2 as substrate after 35 to 40 mins by HTRF assay
Phosphatidylinositol 4,5-bisphosphate 3-kinase catalytic subunit beta isoform, sequence (P42338 whole entry, canonical isoform): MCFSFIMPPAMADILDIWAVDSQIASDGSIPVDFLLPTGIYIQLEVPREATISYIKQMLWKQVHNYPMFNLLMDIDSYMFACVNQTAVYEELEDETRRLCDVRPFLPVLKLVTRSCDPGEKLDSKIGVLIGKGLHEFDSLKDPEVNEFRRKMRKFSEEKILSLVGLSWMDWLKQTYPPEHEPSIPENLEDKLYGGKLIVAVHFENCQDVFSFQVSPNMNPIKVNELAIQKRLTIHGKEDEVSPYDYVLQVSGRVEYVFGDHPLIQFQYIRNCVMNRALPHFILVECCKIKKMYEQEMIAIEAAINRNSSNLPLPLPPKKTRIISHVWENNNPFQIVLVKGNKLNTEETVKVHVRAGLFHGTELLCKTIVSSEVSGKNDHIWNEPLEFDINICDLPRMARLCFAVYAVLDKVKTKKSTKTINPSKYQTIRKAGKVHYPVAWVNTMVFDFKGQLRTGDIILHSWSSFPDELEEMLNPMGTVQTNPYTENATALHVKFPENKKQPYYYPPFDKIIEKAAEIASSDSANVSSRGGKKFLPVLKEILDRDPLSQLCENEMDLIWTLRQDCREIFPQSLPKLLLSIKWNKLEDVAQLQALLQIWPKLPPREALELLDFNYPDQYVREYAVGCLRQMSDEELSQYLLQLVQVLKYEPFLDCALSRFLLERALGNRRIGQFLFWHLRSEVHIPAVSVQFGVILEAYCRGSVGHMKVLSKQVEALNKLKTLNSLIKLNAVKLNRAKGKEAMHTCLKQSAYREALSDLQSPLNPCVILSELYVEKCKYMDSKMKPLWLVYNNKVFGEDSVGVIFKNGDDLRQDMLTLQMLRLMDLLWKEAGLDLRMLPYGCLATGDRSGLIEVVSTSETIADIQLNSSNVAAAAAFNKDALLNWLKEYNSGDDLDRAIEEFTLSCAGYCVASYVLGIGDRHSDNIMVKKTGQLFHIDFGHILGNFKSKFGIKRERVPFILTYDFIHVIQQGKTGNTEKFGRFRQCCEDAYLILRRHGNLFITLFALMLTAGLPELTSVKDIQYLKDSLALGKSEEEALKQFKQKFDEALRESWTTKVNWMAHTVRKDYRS

Phosphatidylinositol 4,5-bisphosphate 3-kinase catalytic subunit alpha isoform, sequence (P42336 whole entry, canonical isoform): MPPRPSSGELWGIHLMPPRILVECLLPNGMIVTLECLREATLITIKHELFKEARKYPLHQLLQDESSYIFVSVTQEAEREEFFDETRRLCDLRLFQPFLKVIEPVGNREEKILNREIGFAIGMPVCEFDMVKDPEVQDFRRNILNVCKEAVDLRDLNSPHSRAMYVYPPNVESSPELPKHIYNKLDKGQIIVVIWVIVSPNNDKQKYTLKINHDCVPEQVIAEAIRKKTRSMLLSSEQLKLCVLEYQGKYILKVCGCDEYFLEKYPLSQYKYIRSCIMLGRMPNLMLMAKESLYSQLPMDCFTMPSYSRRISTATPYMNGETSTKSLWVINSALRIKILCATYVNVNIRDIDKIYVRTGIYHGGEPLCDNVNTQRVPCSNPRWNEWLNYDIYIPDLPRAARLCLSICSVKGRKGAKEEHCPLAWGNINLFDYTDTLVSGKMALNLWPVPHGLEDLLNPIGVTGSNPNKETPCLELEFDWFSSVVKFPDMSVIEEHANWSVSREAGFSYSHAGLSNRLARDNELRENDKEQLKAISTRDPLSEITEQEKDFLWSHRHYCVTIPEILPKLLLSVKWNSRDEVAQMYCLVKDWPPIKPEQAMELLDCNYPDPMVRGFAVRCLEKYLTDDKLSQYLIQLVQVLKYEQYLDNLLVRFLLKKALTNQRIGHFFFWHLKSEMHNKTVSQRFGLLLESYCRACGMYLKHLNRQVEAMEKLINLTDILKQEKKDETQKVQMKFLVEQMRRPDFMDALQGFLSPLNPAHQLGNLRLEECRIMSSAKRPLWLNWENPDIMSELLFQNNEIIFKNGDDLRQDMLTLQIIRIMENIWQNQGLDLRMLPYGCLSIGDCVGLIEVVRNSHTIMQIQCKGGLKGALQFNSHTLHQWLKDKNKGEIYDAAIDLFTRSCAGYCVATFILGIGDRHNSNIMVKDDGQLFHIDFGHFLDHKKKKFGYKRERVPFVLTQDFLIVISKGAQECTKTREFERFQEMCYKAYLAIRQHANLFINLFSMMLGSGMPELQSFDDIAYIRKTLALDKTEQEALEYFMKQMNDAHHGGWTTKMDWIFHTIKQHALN
Phosphatidylinositol 4,5-bisphosphate 3-kinase catalytic subunit gamma isoform, sequence (P48736 whole entry, canonical isoform): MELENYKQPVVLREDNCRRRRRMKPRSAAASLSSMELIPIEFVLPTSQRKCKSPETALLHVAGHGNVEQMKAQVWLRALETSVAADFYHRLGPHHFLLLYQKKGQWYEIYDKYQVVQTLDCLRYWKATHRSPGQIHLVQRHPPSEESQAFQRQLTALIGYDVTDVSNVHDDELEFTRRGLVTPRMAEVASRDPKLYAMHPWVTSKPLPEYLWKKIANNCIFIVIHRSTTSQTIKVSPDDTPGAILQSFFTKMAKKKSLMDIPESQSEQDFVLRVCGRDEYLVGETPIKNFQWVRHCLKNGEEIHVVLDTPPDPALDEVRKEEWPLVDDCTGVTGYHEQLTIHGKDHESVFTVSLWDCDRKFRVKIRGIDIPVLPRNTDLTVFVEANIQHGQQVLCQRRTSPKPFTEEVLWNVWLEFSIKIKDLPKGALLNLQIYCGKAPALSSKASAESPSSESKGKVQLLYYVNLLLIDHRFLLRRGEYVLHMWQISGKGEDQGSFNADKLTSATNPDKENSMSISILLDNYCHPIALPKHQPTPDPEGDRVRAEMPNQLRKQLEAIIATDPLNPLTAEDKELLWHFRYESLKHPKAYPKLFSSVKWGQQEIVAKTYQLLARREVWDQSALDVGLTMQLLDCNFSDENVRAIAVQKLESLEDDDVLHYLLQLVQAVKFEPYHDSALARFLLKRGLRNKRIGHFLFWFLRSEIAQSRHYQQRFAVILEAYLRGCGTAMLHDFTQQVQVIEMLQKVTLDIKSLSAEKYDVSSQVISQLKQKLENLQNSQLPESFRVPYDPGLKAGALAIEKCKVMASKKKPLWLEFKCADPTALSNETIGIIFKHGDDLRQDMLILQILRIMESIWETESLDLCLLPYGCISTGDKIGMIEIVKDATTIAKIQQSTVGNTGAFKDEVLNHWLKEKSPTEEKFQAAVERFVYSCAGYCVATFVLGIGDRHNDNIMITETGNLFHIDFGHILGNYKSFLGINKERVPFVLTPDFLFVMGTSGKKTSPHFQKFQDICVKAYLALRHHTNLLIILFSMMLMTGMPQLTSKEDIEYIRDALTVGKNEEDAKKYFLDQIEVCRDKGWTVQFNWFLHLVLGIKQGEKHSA

Compound	IC50 [1]	IC50 (B-cell)	IC50 [4]	further results
COc1ncc(N2CCc3ncnc(-c4ccnc(NCc5ccccc5)c4)c3C2)cc1C	87 nM			
COc1ncc(N2CCc3ncnc(O[C@H]4CCN(C(=O)C5CCOCC5)C4)c3C2)cc1C		24 nM		IC50 [2]: 153 nM; half-life [3]: 40.2 min
COc1ncc(N2CCc3ncnc(Nc4cccc(C)c4)c3C2)cc1C	220 nM			
COc1ncc(N2CCc3ncnc(-c4cnn(C5CCOCC5)c4)c3C2)cc1C	180 nM		2600 nM	
COCCNc1cc(-c2ncnc3c2CN(c2cnc(OC)c(C)c2)CC3)ccn1	39 nM			
COc1ncc(N2CCc3ncnc(-c4ccc(NC5CCOCC5)nc4)c3C2)cc1C	150 nM			
COc1ncc(N2CCc3ncnc(-c4ccnc(NC5CCN(S(C)(=O)=O)CC5)c4)c3C2)cc1C	9.6 nM	12 nM	1400 nM	CLint scaled at 0.2 µM [5]: > 1000 mL/min/kg
COc1ncc(N2CCc3ncnc(Nc4cccc(C(=O)NC5CCOCC5)c4)c3C2)cc1C	49 nM			
CCN1CCC(Nc2cc(-c3ncnc4c3CN(c3cnc(OC)c(C)c3)CC4)ccn2)CC1	8.5 nM	4.8 nM	4600 nM	IC50 [6]: > 10000 nM; CLint scaled at 0.2 µM [5]: 160 mL/min/kg; IC50 [7]: > 10000 nM
CCOC(=O)c1cccc(Nc2ncnc3c2CN(c2cnc(OC)c(C)c2)CC3)c1	120 nM			
